In patent US7285541B2, “Treatment of melanoma by reduction in clusterin levels” (The University of British Columbia, priority 2002, dated 2007):
e = 2'-O-(2-methoxyethyl) (MOE); d = 2'-deoxy (DNA)

What was measured:
Mel Juso melanoma cells = test: Cell survival of Mel Juso melanoma cells (Neo or clusterin overexpression) in cisplatin, Cell-titer 96; type: cell-based, human; conditions: 10 μM cisplatin, clusterin-overexpressing vs empty vector (Neo) Mel Juso cells
Procedure: Mel Juso melanoma cells stably tranfected with either an empty control vector (Neo) or a vector directing overepression of clusterin were grown in medium containing 10 μM cisplatin. Cell survival was measured using the Cell-titer 96 kits from Promega.

human melanoma cells = test: Apoptotic cell death of human melanoma cells after antisense treatment; type: cell-based; conditions: antisense treatment alone
bcl-xL = bcl-xL expression in clusterin-expressing melanoma cells (Western blotting); type: cell-based, human
Excerpt: While chaperone-like function has been proposed for the clusterin protein, the specific molecular mechanism responsible for clusterin's role in apoptosis remains elusive. In the human melanoma cell line that expressed clusterin at a very low levels, over-expression of clusterin by stable transfection not only led to a marked increase in resistance to a cytotoxic treatment (FIG. 3), but led also to an up-regulation of the anti-apoptotic bcl-2 family member bcl-xL as shown by Western blotting. […] Thus, clusterin regulates the anti-apoptotic bcl-2 family member bcl-xL. Such inhibition is significant because bcl-xL is known to act as an inhibitor of apoptosis (See U.S. Pat. No. 6,182,216 which is incorporated herein by reference in those jurisdictions permitting such incorporation).

607B melanoma cells = test: Cell number of 607B melanoma cells measured photometrically using MTS; type: cell-based, human
Procedure: Lipofectin™ (lip) without oligonucleotide was used as a control. Cells numbers in 96 well plates were measured photometrically using MTS (Cell Titer 96™, […]).

518A2 cells = test: Sensitivity of antisense-treated melanoma cells to consecutive cisplatin treatment; type: cell-based, human; conditions: another melanoma cell line (FIG. 2, 518A2), compared to control-mismatch oligonucleotide
clusterin = test: Clusterin expression in human melanoma cells by RT-PCR and western-blot; type: cell-based; conditions: as compared to the scrambled mismatch control
Procedure: Expression of clusterin in two different batches of normal human melanocytes (NHEM 6083 and 2489) and four human melanoma cell lines (518A2, SKMEL-28, Mel-Juso and 607B). Cells were grown in 6 cm dishes and harvested when they were 80-90% confluent. 30 μg of protein per lane was applied onto a 10% SDS-Page gel and probed with a polyclonal goat anti-clusterin antibody. Panceau red stain and an antibody directed against β-actin were used as a loading control. In each case, the antisense inhibitor of clusterin used is based on the advanced antisense chemistry 2′MOE as described in U.S. patent application Ser. No. 10/080,794 and has the sequence of Seq. ID. NO. 4.
FIG. 2 provides a graphic representations of clusterin expression in 518A2 cells after treatment with cisplatin and either an antisense oligonucleotide or a scrambled control. Lip is a Lipofectin control without oligonucleotide. Detection was performed using an antibody directed against clusterin.

Q: With `N.N.[Cl][Pt][Cl]` [cisplatin] as the molecule, how does the “effectiveness of the chemotherapy agent (cell survival)” value (Mel Juso melanoma cells) read?
A: reduced the effectiveness

Q: Which results are given for “cagcagcagagtcttcatcat (CAGCAGCAGAGTCTTCATCAT; sugars from the 5' end e4 d13 e4, all phosphorothioate, methylation of C not given here) [MOE modification of Seq. ID. NO. 4]”?
A: apoptotic cell death (human melanoma cells): increase in apoptotic cell death; expression of bcl-xL (bcl-xL): marked down-regulation; cell death (607B melanoma cells; 607B melanoma cell line, antisense treatment alone): complete cell death; cell counts (607B melanoma cells; 607B melanoma cells, antisense at 250 and 500 nM on two consecutive days, vs scrambled control 100 nM and Lipofectin): significantly reduced; sensitivity of surviving cells to consecutive treatment with cisplatin (518A2 cells): increased sensitivity; down-regulation of clusterin on the mRNA level (clusterin; RT-PCR): dose dependent down-regulation; down-regulation of clusterin on the protein level (clusterin; western-blot): dose dependent down-regulation
